Source: patent US20250296929A1, “NOVEL HEPATOSELECTIVE POLYADENYLATING POLYMERASES INHIBITORS AND THEIR METHOD OF USE” (BARUCH S. BLUMBERG INSTITUTE, priority 2021, published 2025)
Several values for one entry are separate records, joined by “and”; a condition that tells them apart may be missing. Identical values can stand only once. Like-named read-outs stand apart in the source and are kept apart here.

Assays:
[1] = tested on: HBsAg secretion, HBV producing cell line HepG2.2.15; test: Cellular assay: HBsAg inhibition in HBV producing cell line HepG2.2.15; assay type: cell-based; conditions: Hepatitis B virus
Method: (§1) Cellular assays method 1: Cellular assays: The HBV producing cell line HepG2.2.15 was cultured in DMEM/F12 containing 10% fetal bovine serum (FBS), 100 U/ml penicillin and 100 μg/ml streptomycin (Invitrogen). Compounds of the disclosure in DMSO was added into the culture medium when cell reached 100% confluence. The final concentration of DMSO was adjusted to 0.5%. Culture medium was replaced in two days and the cell was cultured for additional two days in the presence of compound. HBsAg inhibition in culture medium was then detected with AlphaLisa assay using anti-HBsAg antibodies of 10-H05H and 60C-CR2100RB from Fitzgerald Internantional. To examine the change of nucleic acid, total RNA was extracted with Trizol reagents and resolved in glyoxal agarose gel. HBV RNA blotted onto nitrocellulose membrane was measured with P32 labeled ribo-probe. Reduction and shortening of viral RNA indicates on target effect of the tested compound. […] HepG2.2.15 cells were first seeded in 96-well plate (Corning, Cat #: CLS3595) at density of 10,000 cells/well in 100 ul DMEM/F12 medium containing 10% FBS. When cells reached 100% confluence, treatment with compounds of the disclosure was initiated, and cells were cultured in the way as described for HBsAg inhibition study. Four days post drug treatment, 100 ul of CellTiter-Glo reagents (Promega, Cat #G7570) were added into each well and the mixture was incubated at 23° C. for 12 minutes, followed by the reading of luminescent signal in Tecan's Infinite 200 PRO. Compound IC50 on HBsAg and CC50 on cell viability were calculated using Graphpad prism. The IC50 and CC50 are defined as the compound concentration (or conditioned media log dilution) at which HBsAg secretion and cytotoxicity, respectively, are reduced by 50% compared to the no drug control.
(§2) Cellular assays method 2: HepG2.2.15 cells were seeded in duplicate into white, 96-well plates at 1.5×10^4 cells/well. The cells were treated with a 3-fold serial dilution series of the compounds in DMSO. The final DMSO concentration in all wells was 1%, and DMSO was used as no drug control. The HBsAg chemiluminescence immunoassay (CLIA) kit (Autobio Diagnostics Co., Zhengzhou, China) was used to measure the levels of secreted HBV antigens semi-quantitatively. For the detection, 50 μL/well culture supernatant was used and the procedure conducted as directed by manufacturer's instructions. The cytotoxicity was measured using CellTiter-Glo (Promega, Madison, WI, USA, catalogue no. G7571). Dose-response curves were generated and the IC50 and CC50 values were calculated using Graphpad prism. The IC50 and CC50 are defined as the compound concentration (or conditioned media log dilution) at which HBsAg secrection and cytotoxicity, respectively, are reduced by 50% compared to the no drug control.

[2] = Cellular toxicity (CellTiter-Glo) in HepG2.2.15 cells; assay type: cell-based; conditions: human
Method: as §1, §2

[3] = Liver distribution after 8 mg/kg oral dose (liver vs plasma); assay type: in vivo, CD1 mice
Method: Protocol for pharmacokinetic and tissue distribution studies. The pharmacokinetics of the compounds was studied in CD1 mice after intravenous (IV) and oral gavage (PO) administration. Mouse PK studies was conducted at 3 mg/kg (IV) and 8 mg/kg (PO). Plasma samples obtained from dosed animals, at ten time points, including 5, 15 and 30 minutes and 1, 1.5, 2, 4, 6, 8 and 24 hr post-dose for processing to plasma, were prepared for analysis by means of a single step protein precipitation technique, by adding 200 μL of acetonitrile containing an IS mixture (labetalol, imipramine and diclofenac) to 50 μL aliquots of individual subject samples. Samples were mixed by vortex for homogeneity and then subjected to centrifugation at 4000 rpm for 10 min. The supernatant (200 μL) was collected and injected into the LC-MS/MS for analysis. Pharmacokinetic parameters will be calculated using established non-compartmental methods. The liver distribution of the compounds was studied in the PO group and liver tissues were collected at each time point after PO administration. Accurately weighed whole liver tissues were collected in a 50 mL tube, and 3 volumes per weight of water will be added. Tissue samples were homogenized and 50 μL of the homogenates will be processed along with plasma samples as described above.

## COc1cc2c(cc1OCCCCCCC(=O)O)C[C@@H](C(C)C)n1cc(C(=O)O)c(=O)cc1-2 [Example 6, (S)-9-((6-carboxyhexyl)oxy)-6-isopropyl-10-methoxy-2-oxo-6,7-dihydro-2H-pyrido[2,1-a]isoquinoline-3-carboxylic acid]
[1]
  EC50: 23 nM
[2]
  CC50: > 10000 nM
[3]; 0.25 h, individual animals
  Liver concentration: 428 ng/g and 372 ng/g and 199 ng/g
  Ratio (liver/plasma): 41.6 and 19.1 and 10.8
[3]; 0.5 h, individual animals
  Liver concentration: 241 ng/g and 321 ng/g
  Ratio (liver/plasma): 24.3 and 35.6
[3]; 1 h, individual animals
  Liver concentration: 237 ng/g and 404 ng/g
  Ratio (liver/plasma): 39.9 and 43.6
[3]; 2 h, individual animals
  Liver concentration: 377 ng/g and 299 ng/g and 108 ng/g
  Ratio (liver/plasma): 65.8 and 47.3
[3]; 4 h, individual animals
  Liver concentration: 128 ng/g and 179 ng/g
  Ratio (liver/plasma): 42.2 and 43.5
[3]; 6 h, individual animals
  Liver concentration: 130 ng/g and 43.2 ng/g and 55.6 ng/g
  Ratio (liver/plasma): 28.2 and 23.0
[3]; 8 h, individual animals
  Liver concentration: 106 ng/g and 37.6 ng/g and 45.6 ng/g
  Ratio (liver/plasma): 17.8
[3]; CD1, mouse, liver, oral, 8 mg/kg, 0.5 h, individual animals
  concentration at 0.5 h: 366 ng/g
[3]; CD1, mouse, liver, oral, 8 mg/kg, 1 h, individual animals
  concentration at 1 h: 259 ng/g
[3]; CD1, mouse, liver, oral, 8 mg/kg, 4 h, individual animals
  concentration at 4 h: 106 ng/g
[3]; CD1, mouse, liver/plasma, oral, 8 mg/kg, 0.25 h, mean, read-out: Ratio (liver/plasma) Mean
  Kp at 0.25 h: 23.8
[3]; CD1, mouse, liver/plasma, oral, 8 mg/kg, 0.5 h, individual animals, read-out: Ratio (liver/plasma)
  Kp at 0.5 h: 38.9
[3]; CD1, mouse, liver/plasma, oral, 8 mg/kg, 0.5 h, mean, read-out: Ratio (liver/plasma) Mean
  Kp at 0.5 h: 32.9
[3]; CD1, mouse, liver/plasma, oral, 8 mg/kg, 1 h, individual animals, read-out: Ratio (liver/plasma)
  Kp at 1 h: 63.1
[3]; CD1, mouse, liver/plasma, oral, 8 mg/kg, 1 h, mean, read-out: Ratio (liver/plasma) Mean
  Kp at 1 h: 48.9
[3]; CD1, mouse, liver/plasma, oral, 8 mg/kg, 2 h, individual animals, read-out: Ratio (liver/plasma)
  Kp at 2 h: 69.6
[3]; CD1, mouse, liver/plasma, oral, 8 mg/kg, 2 h, mean, read-out: Ratio (liver/plasma) Mean
  Kp at 2 h: 60.9
[3]; CD1, mouse, liver/plasma, oral, 8 mg/kg, 4 h, individual animals, read-out: Ratio (liver/plasma)
  Kp at 4 h: 28.9
[3]; CD1, mouse, liver/plasma, oral, 8 mg/kg, 4 h, mean, read-out: Ratio (liver/plasma) Mean
  Kp at 4 h: 38.2
[3]; CD1, mouse, liver/plasma, oral, 8 mg/kg, 6 h, individual animals, read-out: Ratio (liver/plasma)
  Kp at 6 h: 45.6
[3]; CD1, mouse, liver/plasma, oral, 8 mg/kg, 6 h, mean, read-out: Ratio (liver/plasma) Mean
  Kp at 6 h: 32.3
[3]; CD1, mouse, liver/plasma, oral, 8 mg/kg, 8 h, individual animals, read-out: Ratio (liver/plasma)
  Kp at 8 h: 15.9
[3]; CD1, mouse, liver/plasma, oral, 8 mg/kg, 8 h, mean, read-out: Ratio (liver/plasma) Mean
  Kp at 8 h: 16.8
